In series [1] the test system is MDA-MB-231. Put plainly: In vitro cytotoxicity screening, MTT assay. The note with it: Homo sapiens, MDA-MB-231, 24 h, read-out: In vitro Cytotoxicity (IC50, µM) MDA-MB-231. Background: Tetrazolium dyes change colour on reduction, which living cells bring about.
Excerpt: Two human breast cancer cell lines, namely, MDA-MB-231 and MCF-7 were obtained from American Type Culture Collection (ATCC) via a holding company for biological products and vaccines (VACSERA), Cairo, Egypt. […] The reagents used were RPMI-1640 medium, MTT, DMSO (sigma co., St. Louis, USA), and Fetal bovine serum (GIBCO, UK). […] MTT is a colorimetric assay based on the conversion of the yellow tetrazolium bromide (MTT) to a purple formazan derivative by mitochondrial succinate dehydrogenase in viable cells. Cell lines were cultured in RPMI-1640 medium with 10% foetal bovine serum. Antibiotics added were 100 units/ml penicillin and 100 µg/ml streptomycin maintained at 37 °C in a 5% CO2 incubator. The cell lines were seeded at a density of approximately 1.0 × 10 ^4 cells/well in a 96-well plate at 37 °C for 48 h under 5% CO2. Different concentrations of compounds were added and incubated for 24 h. After 24 h of drug treatment, 20 µl of MTT staining solution at 5 mg/ml was added to each well and incubated for 4 h at 37 °C. After 4 h, 100 µl of dimethyl sulfoxide (DMSO) were added into each well to dissolve the purple formazan crystals formed. The absorbance was recorded at 570 nm using a plate reader (EXL 800, USA). The relative cell viability in percentage was calculated as (A570 of treated samples/A570 of untreated sample) X 100 [22],[23].
Series [2] concerns the target T1, PARP-2 enzyme (Homo sapiens, UniProt Q9UGN5).
T1 construct: purchased BPS Bioscience 80,581
Nature of the series: Poly (ADP-ribose) polymerase 2 (PARP-2) inhibition assay (colorimetric kit). The note with it: for IC50: in vitro enzyme assay. In kind it is biochemical. The method, then: Results were expressed as IC50 values (Table 2).
The PARP-2 inhibitory activity of the test compounds was assayed using PARP-2 Colorimetric Activity Assay Kit (BPS Bioscience, catalog 80,581, San Diego, CA, USA) following the manufacturer’s protocol. Briefly, histone protein mixture was coated on a 96-well microtiter plate and incubated at 4 °C overnight, washed with phosphate-buffered saline with tween-20 (PBST) three times then, the wells were blocked by adding blocking buffer 3 and incubated at room temperature for 60–90 min. After that, the plate was washed with PBST buffer three times. The master mixture which contains the PARP buffer, PARP assay mixture, activated DNA and distilled water was added to each well then, the inhibitor solution (test compound) was added. The reaction was initiated by adding PARP-2 enzyme to the wells and the plate was incubated for 1 h at room temperature. After 1 h, the reaction mixture was discarded, and the plate was washed with PBST buffer three times. Finally, the plate was treated with Streptavidin–Horseradish Peroxidase (HRP) and incubated for 30 min at room temperature and then washed with PBST buffer. The colorimetric HRP substrate was added to each well and incubated at room temperature until the positive control well developed blue color. Sulphuric acid was added to each well after the blue color development. The absorbance was read at 450 nm using UV/Vis spectrophotometer microplate reader.
Suppl. S2. In vitro PARP-2 enzyme inhibition assay
Researcher : Dr. Nadeen Ghobashy email:elghobashynadeen@gmail.com mob.01008873340
Reader : ROBONIK P2000 Eliza Reader wl 450 nm

Some results are limits rather than exact numbers.

Results on 25 compounds are retold here after paper PMC9519869, “Synthesis, biological evaluation, and molecular modeling studies of new benzoxazole derivatives as PARP-2 inhibitors targeting breast cancer” (Scientific Reports, 2022).

What is called melting point is the temperature, or range, at which the solid turns liquid. One may read the IC50 as the concentration at which inhibition is half-maximal.

T1 sequence (Q9UGN5 whole entry): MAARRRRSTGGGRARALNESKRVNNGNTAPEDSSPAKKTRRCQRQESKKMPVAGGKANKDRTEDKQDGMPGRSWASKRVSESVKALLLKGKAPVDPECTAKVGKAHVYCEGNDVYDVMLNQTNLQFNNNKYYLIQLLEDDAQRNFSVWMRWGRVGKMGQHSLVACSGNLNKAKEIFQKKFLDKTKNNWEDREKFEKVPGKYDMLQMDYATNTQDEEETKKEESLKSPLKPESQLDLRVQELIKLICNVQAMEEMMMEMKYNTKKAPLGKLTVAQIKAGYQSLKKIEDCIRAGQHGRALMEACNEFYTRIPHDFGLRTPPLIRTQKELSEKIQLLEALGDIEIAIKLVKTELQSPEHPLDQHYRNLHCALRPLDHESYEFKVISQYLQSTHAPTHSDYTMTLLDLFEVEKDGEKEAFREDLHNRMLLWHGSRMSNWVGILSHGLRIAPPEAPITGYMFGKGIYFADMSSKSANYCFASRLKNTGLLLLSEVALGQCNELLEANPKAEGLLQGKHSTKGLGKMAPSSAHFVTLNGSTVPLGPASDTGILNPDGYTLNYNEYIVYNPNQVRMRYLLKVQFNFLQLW

In the case of `CCOC(=O)c1nnn(-c2ccc(-c3nc4cc(Cl)ccc4o3)cc2)c1C` [Compound 29, Ethyl 1-(4-(5-chlorobenzoxazol-2-yl)phenyl)-5-methyl-1H-1,2,3-triazole-4-carboxylate], the melting point lay in the range of 251 to 253 °C. Besides, the IC50 in series [1] came to 76 ± 3.8 µM.
For the compound `COc1ccccc1N1CCN(CCC(=O)Nc2ccc(-c3nc4cc(Cl)ccc4o3)cc2)CC1` [Compound 19, N-(4-(5-chlorobenzoxazol-2-yl)phenyl)-3-(4-(2-methoxyphenyl)piperazin-1-yl)propanamide], the melting point lay within 211 to 213 °C. The IC50 in series [1] worked out at 22.5 ± 1.9 µM.
For the compound `CCN(CC)CC(=O)Nc1ccc(-c2nc3cc(Cl)ccc3o2)cc1` [Compound 26, N-(4-(5-chlorobenzoxazol-2-yl)phenyl)-2-(diethylamino)acetamide], the melting point was in the range of 133 to 135 °C. The “%inh of PARP-2 (Table S2 raw data)” value in series [2] (conc 0.01 (ng/ml)) is given as 21.36%. In addition, in series [2] (conc 0.1 (ng/ml)), the “%inh of PARP-2 (Table S2 raw data)” value turned out to be 38.75%. The “%inh of PARP-2 (Table S2 raw data)” value in series [2] (conc 1 (ng/ml)) turned out to be 55.9%. In addition, the “%inh of PARP-2 (Table S2 raw data)” value in series [2] (conc 10 (ng/ml)) is listed as 86.92%. Also, in series [2], half-maximal inhibition (IC50) was put at 0.292 ± 0.016 µM. Further, the IC50 in series [1] was 18.6 ± 1.3 µM.
The compound `CN1CCN(CC(=O)Nc2ccc(-c3nc4cc(Cl)ccc4o3)cc2)CC1` [Compound 8, N-(4-(5-chlorobenzoxazol-2-yl)phenyl)-2-(4-methylpiperazin-1-yl)acetamide] gave a melting point of 179 to 181 °C. Further, in series [1], the IC50 worked out at 30.9 ± 2.3 µM.
Consider `CCN1CCN(CCC(=O)Nc2ccc(-c3nc4cc(Cl)ccc4o3)cc2)CC1` [Compound 14, N-(4-(5-chlorobenzoxazol-2-yl)phenyl)-3-(4-ethylpiperazin-1-yl)propanamide], for which the melting point is 167 to 169 °C. Moreover, the “%inh of PARP-2 (Table S2 raw data)” value in series [2] (conc 0.01 (ng/ml)) amounted to 33.28%. The “%inh of PARP-2 (Table S2 raw data)” value in series [2] (conc 0.1 (ng/ml)) was 46.83%. For the same compound, in series [2] (conc 1 (ng/ml)), the “%inh of PARP-2 (Table S2 raw data)” value turned out to be 75.72%. Further, the “%inh of PARP-2 (Table S2 raw data)” value in series [2] (conc 10 (ng/ml)) was 90.54%. This compound registered an IC50 in series [2] of 0.084 ± 0.005 µM. For the same compound, the IC50 in series [1] was 10.8 ± 0.9 µM.
Compound `O=C(CNCc1ccccc1)Nc1ccc(-c2nc3cc(Cl)ccc3o2)cc1` [Compound 20, 2-(benzylamino)-N-(4-(5-chlorobenzoxazol-2-yl)phenyl)acetamide] registered a melting point of 158 to 160 °C. In addition, the IC50 in series [1] is 47.6 ± 2.8 µM.
`O=C(CCNCCCc1ccccc1)Nc1ccc(-c2nc3cc(Cl)ccc3o2)cc1` [Compound 25, N-(4-(5-chlorobenzoxazol-2-yl)phenyl)-3-((3-phenylpropyl)amino)propanamide] had a melting point of 87 to 89 °C. For the same compound, the “%inh of PARP-2 (Table S2 raw data)” value in series [2] (conc 0.01 (ng/ml)) is recorded as 36.11%. The “%inh of PARP-2 (Table S2 raw data)” value in series [2] (conc 0.1 (ng/ml)) is on record as 47.92%. Moreover, in series [2] (conc 1 (ng/ml)), the “%inh of PARP-2 (Table S2 raw data)” value turned out to be 73.45%. Further, the “%inh of PARP-2 (Table S2 raw data)” value in series [2] (conc 10 (ng/ml)) is 88.59%. This compound had an IC50 in series [2] of 0.074 ± 0.004 µM. Besides, in series [1], the IC50 worked out at 15.6 ± 1.2 µM.
`O=C(CCl)Nc1ccc(-c2nc3cc(Cl)ccc3o2)cc1` [Compound 4, 2-chloro-N-(4-(5-chlorobenzoxazol-2-yl)phenyl)acetamide]: the melting point lay within 218 to 220 °C. In series [1], the concentration for half-maximal inhibition (IC50) turned out to be 43.2 ± 2.7 µM.
The compound `O=C(CCNCc1ccccc1)Nc1ccc(-c2nc3cc(Cl)ccc3o2)cc1` [Compound 23, 3-(benzylamino)-N-(4-(5-chlorobenzoxazol-2-yl)phenyl)propanamide] displayed a melting point of 109 to 111 °C. Also, the IC50 in series [1] stood at 62.1 ± 3.4 µM.
As for `O=C(CCNCCc1ccccc1)Nc1ccc(-c2nc3cc(Cl)ccc3o2)cc1` [Compound 24, N-(4-(5-chlorobenzoxazol-2-yl)phenyl)-3-(phenethylamino)propanamide], the melting point lay within 73 to 75 °C. Also, the IC50 in series [1] came to 26.5 ± 2.1 µM.
The compound `O=C(CNCCc1ccccc1)Nc1ccc(-c2nc3cc(Cl)ccc3o2)cc1` [Compound 21, N-(4-(5-chlorobenzoxazol-2-yl)phenyl)-2-(phenethylamino)acetamide] gave a melting point of 129 to 131 °C. Also, the “%inh of PARP-2 (Table S2 raw data)” value in series [2] (conc 0.01 (ng/ml)) was found to be 20.88%. Further, the “%inh of PARP-2 (Table S2 raw data)” value in series [2] (conc 0.1 (ng/ml)) stood at 36.15%. The “%inh of PARP-2 (Table S2 raw data)” value in series [2] (conc 1 (ng/ml)) is 52.41%. In addition, the “%inh of PARP-2 (Table S2 raw data)” value in series [2] (conc 10 (ng/ml)) came to 81.94%. Further, in series [2], the IC50 amounted to 0.406 ± 0.022 µM. Further, in series [1], the IC50 was determined as 12.2 ± 1 µM.
In turn, `CC(=O)c1nnn(-c2ccc(-c3nc4cc(Cl)ccc4o3)cc2)c1C` [Compound 30, 1-(1-(4-(5-chlorobenzoxazol-2-yl)phenyl)-5-methyl-1H-1,2,3-triazol-4-yl)ethan-1-one] gave a melting point of 212 to 214 °C. The IC50 in series [1] came to 73.9 ± 3.6 µM.
In turn, `O=C(CCN1CCN(c2ccccc2)CC1)Nc1ccc(-c2nc3cc(Cl)ccc3o2)cc1` [Compound 18, N-(4-(5-chlorobenzoxazol-2-yl)phenyl)-3-(4-phenylpiperazin-1-yl)propanamide] gave a melting point of 239 to 241 °C. Moreover, the IC50 in series [1] came out at 19.2 ± 1.6 µM.
Turning to `O=C(CN1CCN(c2ccccc2)CC1)Nc1ccc(-c2nc3cc(Cl)ccc3o2)cc1` [Compound 16, N-(4-(5-chlorobenzoxazol-2-yl)phenyl)-2-(4-phenylpiperazin-1-yl)acetamide], the melting point lay in the range of 231 to 233 °C. Besides, in series [1], the 50% inhibitory concentration (IC50) was found to be 78.8 ± 3.8 µM.
Turning to `CNC(=O)c1cc(Oc2ccc(NC(=O)Nc3ccc(Cl)c(C(F)(F)F)c3)cc2)ccn1` [Sorafenib, reference compound], the IC50 in series [1] came to 7.47 ± 0.3 µM.
The same measure, in the same setting: then `Nc1ccc(-c2nc3cc(Cl)ccc3o2)cc1` [Compound 3, 4-(5-chlorobenzoxazol-2-yl)aniline], with 24 ± 1.8 µM.
The compound `O=C(CN1CCCCC1)Nc1ccc(-c2nc3cc(Cl)ccc3o2)cc1` [Compound 6, N-(4-(5-chlorobenzoxazol-2-yl)phenyl)-2-(piperidin-1-yl)acetamide] registered a melting point of 180 to 182 °C. Also, the IC50 in series [1] was found to be 42.5 ± 2.8 µM.
`O=C(CN1CCOCC1)Nc1ccc(-c2nc3cc(Cl)ccc3o2)cc1` [Compound 7, N-(4-(5-chlorobenzoxazol-2-yl)phenyl)-2-morpholinoacetamide]: the melting point fell in the range of 178 to 180 °C. In addition, the IC50 in series [1] amounted to 51.6 ± 3 µM.
Taken in the same sequence, the figures for `CCN1CCN(CC(=O)Nc2ccc(-c3nc4cc(Cl)ccc4o3)cc2)CC1` [Compound 9, N-(4-(5-chlorobenzoxazol-2-yl)phenyl)-2-(4-ethylpiperazin-1-yl)acetamide] were 153 to 155 °C and 39.5 ± 2.6 µM.
Taken in the same sequence, the figures for `O=C(CCN1CCN(Cc2ccccc2)CC1)Nc1ccc(-c2nc3cc(Cl)ccc3o2)cc1` [Compound 15, 3-(4-benzylpiperazin-1-yl)-N-(4-(5-chlorobenzoxazol-2-yl)phenyl)propanamide] were 182 to 184 °C and 35.3 ± 2.5 µM.
In turn, `O=C(CCCl)Nc1ccc(-c2nc3cc(Cl)ccc3o2)cc1` [Compound 5, 3-chloro-N-(4-(5-chlorobenzoxazol-2-yl)phenyl)propanamide] gave a melting point of 210 to 212 °C. Moreover, the IC50 in series [1] was 55.7 ± 3.2 µM.
The matching figures for `COc1ccccc1N1CCN(CC(=O)Nc2ccc(-c3nc4cc(Cl)ccc4o3)cc2)CC1` [Compound 17, N-(4-(5-chlorobenzoxazol-2-yl)phenyl)-2-(4-(2-methoxyphenyl)piperazin-1-yl)acetamide]: 218 to 220 °C and 48 ± 2.9 µM.
`O=C(CN1CCN(Cc2ccccc2)CC1)Nc1ccc(-c2nc3cc(Cl)ccc3o2)cc1` [Compound 10, 2-(4-benzylpiperazin-1-yl)-N-(4-(5-chlorobenzoxazol-2-yl)phenyl)acetamide] yielded a melting point of 195 to 197 °C. Also, the IC50 in series [1] turned out to be 71.7 ± 3.5 µM.
Compound `[N-]=[N+]=Nc1ccc(-c2nc3cc(Cl)ccc3o2)cc1` [Compound 28, 2-(4-azidophenyl)-5-chlorobenzoxazole] registered a melting point of 167 to 169 °C. In series [1], the IC50 was over 100 µM.
The compound `O=C(CNCCCc1ccccc1)Nc1ccc(-c2nc3cc(Cl)ccc3o2)cc1` [Compound 22, N-(4-(5-chlorobenzoxazol-2-yl)phenyl)-2-((3-phenylpropyl)amino)acetamide] showed a melting point of 93 to 95 °C. The “%inh of PARP-2 (Table S2 raw data)” value in series [2] (conc 0.01 (ng/ml)) is recorded as 27.08%. Also, the “%inh of PARP-2 (Table S2 raw data)” value in series [2] (conc 0.1 (ng/ml)) is 33.43%. In addition, the “%inh of PARP-2 (Table S2 raw data)” value in series [2] (conc 1 (ng/ml)) stood at 58.97%. The “%inh of PARP-2 (Table S2 raw data)” value in series [2] (conc 10 (ng/ml)) stood at 86.49%. The compound further showed an IC50 in series [2] of 0.267 ± 0.015 µM. Moreover, the IC50 in series [1] was found to be 17.4 ± 1.4 µM.
